{
  "source": "ChEMBL document CHEMBL5678800",
  "about": "(Mol Cancer Ther, 2009)",
  "format_in_all_cases": "functional",
  "key": {"GEO [1]": {"tested_on": "GEO", "assay": "Antitumor activity against human GEO cells xenografted in nude mouse assessed as tumor growth inhibition at 25 mg/kg, po administered for 14 days relative to control", "settings": "336 h, time 14 day, read-out: TGI"}, "Rh41": {"tested_on": "Rh41", "assay": "Induction of cell cycle arrest in human Rh41 cells assessed as accumulation of cells at G2/M phase by measuring >4N DNA content at 10x IC50 incubated for 24 hrs by propidium iodide staining based flow cytometry analysis"}, "GEO [2]": {"tested_on": "GEO", "assay": "Antitumor activity against human GEO cells xenografted in nude mouse assessed as tumor growth delay time at 12.5 mg/kg, po administered for 3 days in presence of cetuximab at 0.25 mg/kg relative to control", "settings": "time 3 day"}, "GEO [3]": {"tested_on": "GEO", "assay": "Antitumor activity against human GEO cells xenografted in nude mouse assessed as tumor growth inhibition at 25 mg/kg, po administered for 17 days relative to control", "settings": "408 h, time 17 day, read-out: TGI"}, "COLO 205": {"tested_on": "COLO 205", "assay": "Antitumor activity against human COLO 205 cells xenografted in nude mouse assessed as tumor growth inhibition at 50 mg/kg, po administered for 23 days relative to control", "settings": "COLO 205, 552 h, time 23 day, read-out: TGI"}, "JJN-3": {"tested_on": "JJN-3", "assay": "Antitumor activity against human JJN-3 cells xenografted in nude mouse assessed as tumor growth inhibition at 25 mg/kg, po administered for 14 days relative to control", "settings": "JJN-3, 336 h, time 14 day, read-out: TGI"}, "Mus musculus": {"tested_on": "Mus musculus", "assay": "Anti-diabetic activity against nude mouse xenografted with mouse IGF-1R-Sal cells assessed as increased serum glucose level at 25 mg/kg, po administered for 2 hrs by oral glucose tolerance test (Rvb= 97.40 +/- 5.0 mg/dl)"}},
  "note": "Calls of active or inactive are those of the source. No cut-off for these calls is given here.",
  "data": [
    {"smiles": "C[C@@]1(C(=O)Nc2ccc(F)nc2)CCCN1c1nc(Nc2cc(C3CC3)n[nH]2)c2cccn2n1", "note": "[BMS-754807]", "values": [
      {"measurement": "inhibition in vivo at 25 mg/kg", "setting": "GEO [1]", "result": 56, "unit": "%"},
      {"measurement": "Activity", "setting": "Rh41", "result": "Active"},
      {"measurement": "Time", "setting": "GEO [2]", "result": 38, "unit": "days"},
      {"measurement": "inhibition in vivo at 25 mg/kg", "setting": "GEO [3]", "result": 61, "unit": "%"},
      {"measurement": "inhibition in vivo at 50 mg/kg", "setting": "COLO 205", "result": 53, "unit": "%"},
      {"measurement": "inhibition in vivo at 25 mg/kg", "setting": "JJN-3", "result": 53, "unit": "%"},
      {"measurement": "Activity", "setting": "Mus musculus", "result": 95, "unit": "mg/dL"}
    ]}
  ]
}
